# Source: patent US10597388B2, “Pyridazinone herbicides” (FMC CORPORATION, priority 2014, dated 2020)
# How the values were obtained:
# Assay type in all cases: in vivo
# [1] = system: crabgrass, large (large crabgrass, Digitaria sanguinalis); assay: Test C greenhouse herbicide test, pre- and postemergence
# Procedure, shortened: (§1)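 Preemergence: seeds sown in a loam soil–sand blend and sprayed with test chemicals in a non-phytotoxic solvent mixture containing surfactant. Postemergence: plants grown in peat-based medium and treated at 2 to 18 cm (1- to 4-leaf stage). After 13 to 15 d in a greenhouse, injury was visually rated 0–100 against controls.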
# [2] = system: morningglory (Ipomoea coccinea); assay: as above
# Procedure, shortened: as §1
# [3] = system: pigweed (Amaranthus retroflexus); assay: as above
# Procedure, shortened: as §1
# [4] = system: foxtail, giant (giant foxtail, Setaria faberii); assay: as above
# Procedure, shortened: as §1
# corn (Zea mays) = assay: as above
# Procedure, shortened: as §1
# [5] = system: wheat (winter wheat, Triticum aestivum); assay: as above
# Procedure, shortened: as §1
# [6] = system: oilseed rape (Brassica napus); assay: as above
# Procedure, shortened: as §1
# [7] = system: waterhemp (common waterhemp, Amaranthus rudis); assay: as above
# Procedure, shortened: as §1
# [8] = system: lambsquarters (Chenopodium album); assay: as above
# Procedure, shortened: as §1
# [9] = system: ragweed (common ragweed, Ambrosia elatior); assay: as above
# Procedure, shortened: as §1
# [10] = system: blackgrass (Alopecurus myosuroides); assay: as above
# Procedure, shortened: as §1
# [11] = system: ryegrass, Italian (Italian ryegrass, Lolium multiflorum); assay: as above
# Procedure, shortened: as §1
# [12] = system: nutsedge, yellow (yellow nutsedge, Cyperus esculentus); assay: as above
# Procedure, shortened: as §1
# [13] = system: johnsongrass (Sorghum halepense); assay: as above
# Procedure, shortened: as §1
# soybean (Glycine max) = assay: as above
# Procedure, shortened: as §1
# kochia (Kochia scoparia) = assay: Test C greenhouse herbicide test, postemergence
# Procedure, shortened: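 Visual injury scores (0–100, where 100 means complete control) were assigned 13 to 15 d after postemergence application, by comparison with untreated plants. Treated seedlings stood 2 to 18 cm tall, at the 1- to 4-leaf stage.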
# [14] = Postemergence, 31 g ai/ha, scale 0 to 100 (0 no effect, 100 complete control)
# [15] = Postemergence, 62 g ai/ha, 0 to 100 scale (0 no effect, 100 complete control)
# [16] = Postemergence, 250 g ai/ha, scale 0 to 100, 0 no effect, 100 complete control, 13 to 15 d
# [17] = postemergence, 125 g ai/ha, scale 0 to 100, 0 no effect, 100 complete control
structure (smiles),measurement,setting,value
COC(=O)Oc1c(C)nn(C)c(=O)c1-c1c([N+](=O)[O-])ccc2ccccc12 [Compound 162],"Plant response rating, Crabgrass, Large",[1]; [14],0
same,"Crabgrass, Large plant response rating",[1]; [15],5
same,"Plant response rating, Crabgrass, Large",[1]; [16],10
same,"Crabgrass, Large plant response rating",[1]; [17],10
same,"Plant response rating, Morningglory",[2]; [14],60
same,Morningglory plant response rating,[2]; [15],85
same,"Plant response rating, Morningglory",[2]; [16],90
same,Morningglory plant response rating,[2]; [17],85
same,"Plant response rating, Pigweed",[3]; [14],75
same,Pigweed plant response rating,[3]; [15],80
same,"Plant response rating, Pigweed",[3]; [16],90
same,Pigweed plant response rating,[3]; [17],85
same,"Plant response rating, Foxtail, Giant",[4]; [14],5
same,"Foxtail, Giant plant response rating",[4]; [15],15
same,"Plant response rating, Foxtail, Giant",[4]; [16],40
same,"Foxtail, Giant plant response rating",[4]; [17],15
same,"Plant response rating, Corn",corn (Zea mays); [14],0
same,Corn plant response rating,corn (Zea mays); [15],0
same,"Plant response rating, Corn",corn (Zea mays); [16],0
same,Corn plant response rating,corn (Zea mays); [17],0
same,"Plant response rating, Wheat",[5]; [14],0
same,Wheat plant response rating,[5]; [15],10
same,"Plant response rating, Wheat",[5]; [16],10
same,Wheat plant response rating,[5]; [17],5
same,"Plant response rating, Oilseed Rape",[6]; [14],0
same,Oilseed Rape plant response rating,[6]; [15],0
same,"Plant response rating, Oilseed Rape",[6]; [16],0
same,Oilseed Rape plant response rating,[6]; [17],0
same,"Plant response rating, Waterhemp",[7]; [14],45
same,Waterhemp plant response rating,[7]; [15],65
same,"Plant response rating, Waterhemp",[7]; [16],65
same,Waterhemp plant response rating,[7]; [17],70
same,"Plant response rating, Lambsquarters",[8]; [14],85
same,Lambsquarters plant response rating,[8]; [15],95
same,"Plant response rating, Lambsquarters",[8]; [16],95
same,Lambsquarters plant response rating,[8]; [17],90
same,"Plant response rating, Ragweed",[9]; [14],70
same,Ragweed plant response rating,[9]; [15],85
same,"Plant response rating, Ragweed",[9]; [16],90
same,Ragweed plant response rating,[9]; [17],75
same,"Plant response rating, Blackgrass",[10]; [14],10
same,Blackgrass plant response rating,[10]; [15],15
same,"Plant response rating, Blackgrass",[10]; [16],40
same,Blackgrass plant response rating,[10]; [17],30
same,"Plant response rating, Ryegrass, Italian",[11]; [14],60
same,"Ryegrass, Italian plant response rating",[11]; [15],70
same,"Plant response rating, Ryegrass, Italian",[11]; [16],80
same,"Ryegrass, Italian plant response rating",[11]; [17],70
same,"Plant response rating, Nutsedge, Yellow",[12]; [14],20
same,"Nutsedge, Yellow plant response rating",[12]; [15],25
same,"Plant response rating, Nutsedge, Yellow",[12]; [16],30
same,"Nutsedge, Yellow plant response rating",[12]; [17],30
same,"Plant response rating, Johnsongrass",[13]; [14],5
same,Johnsongrass plant response rating,[13]; [15],5
same,"Plant response rating, Johnsongrass",[13]; [16],10
same,Johnsongrass plant response rating,[13]; [17],5
same,"Plant response rating, Soybean",soybean (Glycine max); [14],0
same,Soybean plant response rating,soybean (Glycine max); [15],0
same,"Plant response rating, Soybean",soybean (Glycine max); [16],0
same,Soybean plant response rating,soybean (Glycine max); [17],0
same,"Plant response rating, Kochia",kochia (Kochia scoparia); [14],70
same,Kochia plant response rating,kochia (Kochia scoparia); [15],80
same,"Plant response rating, Kochia",kochia (Kochia scoparia); [16],90
same,Kochia plant response rating,kochia (Kochia scoparia); [17],90
